Assay results from patent publication US8389508B2 (Glaxo Group Limited, priority 2010, dated 2013).
Structures can show the parent of a compound that is named as a salt.

Experiments:
[1] = target: T1, human Endothelial Differentiation G-protein Coupled Receptor 3 (EDG3), S1P3 receptor (Homo sapiens, UniProt Q99500); test: S1P3 Assay (GeneBLAzer EDG3-Ga15-NFAT-bla HEK 293T beta-lactamase reporter, agonist dose response); assay type: cell-based; details: EDG3-Ga15-NFAT-bla HEK 293T cells, blue/green emission ratio, 10 point dose response, free base or salt form; read-out: pEC50 (S1P3 assay) (converted)
T1 construct: expressed in transfected cells; host or cells: GeneBLAzer EDG3-Ga15-NFAT-bla HEK 293T
Procedure: GeneBLAzer EDG3-Ga15-NFAT-bla HEK 293T cells (contain the human Endothelial Differentiation G-protein Coupled Receptor 3 (EDG3) and a beta-lactamase reporter gene under control of a NFAT response element and a promiscuous G Protein, Ga15, stably integrated into the GeneBLAzer Ga15-NFAT-bla HEK 293T cell line) were harvested from growth medium and suspended in assay medium (90% DMEM, 10% Charcoal-stripped FBS, 0.1 mM NEAA, 25 mM HEPES (pH 7.3), 100 U/ml penicillin, 100 μg/ml streptomycin) at a density of […]. All test compounds were dissolved in DMSO at a concentration of 10 mM and were prepared in 100% DMSO to provide 10 point dose response curves. Test compounds in the free base or in a salt form were prepared by Velocity 11 Bravo automation (Agilent) were added to wells in columns 2-11 and 13-22; DMSO was added to wells in columns 12 and 23 as unstimulated controls and assay medium was added to wells in columns 1 and 24 as cell-free controls. An S1P3 agonist was added to wells in row 2, columns 2-11 as stimulated controls and test compounds were added to wells in row 2, columns 13-22 and rows 3-15, columns 2-11/13-22 (row 1 and 16 were empty and not used). Compounds in solution were added to the assay plate (Greiner 781090) using an Echo (Labcyte) dose-response program (50 nl/well). The unstimulated and cell-free controls were loaded with 50 nl/well pure DMSO to ensure that the DMSO concentration was constant across the plate for all assays.
50 μl of the cell suspension was added to each well in columns 2-23 of the plate (˜10,000 cells per well). 50 μl of assay medium was added to each well in the cell-free controls (columns 1 and 24). The cells were incubated overnight at 37° C./5% CO2.
(§1) 10 μl of 6× substrate mixture (LiveBLAzer™-FRET B/G substrate (CCF4-AM) Cat # K1096 from Invitrogen, Inc.) was added to each well using Bravo automation and the plates incubated at room temperature for 2 h in the dark. The plate was finally read on EnVision using one excitation channel (409 nm) and two emission channels (460 nm and 530 nm).
(§2) The blue/green emission ratio (460 nm/530 nm) was calculated for each well, by dividing the background-subtracted Blue emission values by the background-subtracted Green emission values. The dose response curve is based on sigmoidal dose-response model. All ratio data was normalized based upon the maximum emission ratio of positive control and minimum emission ratio of negative control (DMSO) on each plate. The intrinsic activity (IA) of each compound is defined as relative response normalised to a reference compound, whose maximum response is defined as 100% after curve fitting.

[2] = target: T2, human Endothelial Differentiation Gene 1 (EDG1), S1P1 receptor (Homo sapiens, UniProt P21453); test: S1P1 Assay (Tango EDG1-bla/U2OS beta-lactamase reporter, agonist dose response); assay type: cell-based; details: EDG1-bla/U2OS cells, blue/green emission ratio, 10 point dose response, free base or salt form; read-out: pEC50 (S1P1 assay) (converted)
T2 construct: TEV protease site; Gal4-VP16 transcription factor; expressed in transfected cells; host or cells: EDG1-bla/U2OS (Tango GPCR-bla U2OS parental cell line)
Procedure: Recombinant EDG1-bla/U2OS cells (contain the human Endothelial Differentiation Gene 1 (EDG1) linked to a TEV protease site and a Gal4-VP16 transcription factor stably integrated into the Tango GPCR-bla U2OS parental cell line) were harvested from growth medium and passaged into assay medium (Invitrogen Freestyle Expression Medium). The cells were starved for 24 hours at 37° C., 5% CO2, harvested and resuspended in assay medium at a density of ˜200,000 cells/ml. All test compounds were dissolved in DMSO at a concentration of 10 mM and were prepared in 100% DMSO to provide 10 point dose response curves. Test compounds in the free base or in a salt form were prepared by Velocity11 Bravo automation (Agilent) were added to wells in columns 2-11 and 13-22; DMSO was added to wells in columns 12 and 23 as unstimulated controls and assay medium was added to wells in columns 1 and 24 as cell-free controls. An S1P1 agonist was added to wells in row 2, columns 2-11 as stimulated controls and test compounds were added to wells in row 2, columns 13-22 and rows 3-15, columns 2-11/13-22 (row 1 and 16 were empty and not used). Compounds in solution were added to the assay plate (Greiner 781090) using an Echo (Labcyte) dose-response program (50 nl/well). The unstimulated and cell-free controls were loaded with 50 nl/well pure DMSO to ensure that the DMSO concentration was constant across the plate for all assays. 50 μl of the cell suspension was added to each well in columns 2-23 of the plate (˜10,000 cells per well). 50 μl of assay medium was added to each well in the cell-free controls (columns 1 and 24). The cells were incubated overnight at 37° C./5% CO2.
as §1, §2

T2 sequence (P21453 whole entry, the tested form may be a part): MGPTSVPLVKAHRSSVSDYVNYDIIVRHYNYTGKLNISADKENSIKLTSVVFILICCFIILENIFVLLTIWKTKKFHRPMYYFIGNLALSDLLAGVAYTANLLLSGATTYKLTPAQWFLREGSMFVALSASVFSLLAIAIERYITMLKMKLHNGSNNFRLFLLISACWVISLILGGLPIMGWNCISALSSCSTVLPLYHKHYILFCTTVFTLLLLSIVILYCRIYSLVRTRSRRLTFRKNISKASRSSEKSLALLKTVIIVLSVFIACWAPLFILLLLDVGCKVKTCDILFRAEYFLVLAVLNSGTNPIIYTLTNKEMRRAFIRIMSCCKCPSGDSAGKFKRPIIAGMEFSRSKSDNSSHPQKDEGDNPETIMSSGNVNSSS
T1 sequence (Q99500 whole entry): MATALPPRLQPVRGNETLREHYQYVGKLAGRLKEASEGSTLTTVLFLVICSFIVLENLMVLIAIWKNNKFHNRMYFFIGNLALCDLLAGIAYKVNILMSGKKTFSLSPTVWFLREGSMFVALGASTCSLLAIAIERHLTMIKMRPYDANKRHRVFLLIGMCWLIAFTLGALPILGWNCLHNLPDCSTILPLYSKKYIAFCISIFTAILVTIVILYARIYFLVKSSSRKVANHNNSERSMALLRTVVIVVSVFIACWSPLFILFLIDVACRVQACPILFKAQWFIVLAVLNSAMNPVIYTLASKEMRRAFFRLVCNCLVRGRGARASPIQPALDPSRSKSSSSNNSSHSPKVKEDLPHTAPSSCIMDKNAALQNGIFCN

Compound | EC50 [1] [nM] | EC50 [2] [nM]
COc1c(CCN2CC(C(=O)O)C2)cc(F)cc1-c1nnc(-c2ccc(CC(C)C)c(C#N)c2)s1 [Example 15, 1-{2-[3-{5-[3-cyano-4-(2-methylpropyl)phenyl]-1,3,4-thiadiazol-2-yl}-5-fluoro-2-(methyloxy)phenyl]ethyl}-3-azetidinecarboxylic acid] | > 10000 | ≤ 10
CCc1c(CN2CC(C(=O)O)C2)cccc1-c1nsc(-c2ccc(OC(C)C)c(C#N)c2)n1 [Example 17, 1-{[3-(5-{3-cyano-4-[(1-methylethyl)oxy]phenyl}-1,2,4-thiadiazol-3-yl)-2-ethylphenyl]methyl}-3-azetidinecarboxylic acid trifluoroacetate] | > 3160 | ≤ 10
CCc1c(CN2CCC(C(=O)O)CC2)cccc1-c1nsc(-c2ccc(OC(C)C)c(C(F)(F)F)c2)n1 [Example 18, 1-[(2-ethyl-3-{5-[4-[(1-methylethyl)oxy]-3-(trifluoromethyl)phenyl]-1,2,4-thiadiazol-3-yl}phenyl)methyl]-4-piperidinecarboxylic acid trifluoroacetate] | > 3160 | < 100
CCc1c(CCN2CC(C(=O)O)C2)cccc1-c1nsc(-c2ccc(OC(C)C)c(C#N)c2)n1 [Example 26, 1-{2-[3-(5-{3-cyano-4-[(1-methylethyl)oxy]phenyl}-1,2,4-thiadiazol-3-yl)-2-ethylphenyl]ethyl}-3-azetidinecarboxylic acid trifluoroacetate] | > 3160 | < 1
CCc1c(CN2CC(C(=O)O)C2)cccc1-c1cnc(-c2ccc(OC(C)C)c(C(F)(F)F)c2)s1 [Example 31, 1-[(2-ethyl-3-{2-[4-[(1-methylethyl)oxy]-3-(trifluoromethyl)phenyl]-1,3-thiazol-5-yl}phenyl)methyl]-3-azetidinecarboxylic acid] | > 3160 | < 1
CCc1c(CN2CCC(C(=O)O)CC2)cccc1-c1cnc(-c2ccc(OC(C)C)c(C(F)(F)F)c2)s1 [Example 32, 1-[(2-ethyl-3-{2-[4-[(1-methylethyl)oxy]-3-(trifluoromethyl)phenyl]-1,3-thiazol-5-yl}phenyl)methyl]-4-piperidinecarboxylic acid] | > 3160 | < 1
COc1c(CCN2CC(C(=O)O)C2)cc(F)cc1-c1cnc(-c2ccc(OC(C)C)c(Cl)c2)s1 [Example 33, 1-{2-[3-(2-{3-chloro-4-[(1-methylethyl)oxy]phenyl}-1,3-thiazol-5-yl)-5-fluoro-2-(methyloxy)phenyl]ethyl}-3-azetidinecarboxylic acid trifluoroacetate] | > 3160 | < 1
CCc1c(CCN2CC(C(=O)O)C2)cccc1-c1cnc(-c2ccc(OC(C)C)c(C#N)c2)s1 [Example 34, 1-{2-[3-(2-{3-cyano-4-[(1-methylethyl)oxy]phenyl}-1,3-thiazol-5-yl)-2-ethylphenyl]ethyl}-3-azetidinecarboxylic acid trifluoroacetate] | > 3160 | < 1
CCc1c(CN2CCC(C(=O)O)CC2)cccc1-c1cnc(-c2ccc(OC(C)C)c(Cl)c2)s1 [Example 36, 1-{[3-(2-{3-chloro-4-[(1-methylethyl)oxy]phenyl}-1,3-thiazol-5-yl)-2-ethylphenyl]methyl}-4-piperidinecarboxylic acid trifluoroacetate] | > 10000 | < 100
CCc1c(CCN2CCC(C(=O)O)CC2)cccc1-c1cnc(-c2ccc(OC(C)C)c(C#N)c2)s1 [Example 37, 1-{2-[3-(2-{3-cyano-4-[(1-methylethyl)oxy]phenyl}-1,3-thiazol-5-yl)-2-ethylphenyl]ethyl}-4-piperidinecarboxylic acid trifluoroacetate] | 933 | < 1

Now from value to compound:

EC50 [1] [nM] | EC50 [2] [nM] | Compound
> 10000 | < 1 | CCc1c(CN2CC(C(=O)O)C2)cccc1-c1cnc(-c2ccc(OC(C)C)c(C#N)c2)s1 [Example 38, 1-{[3-(2-{3-cyano-4-[(1-methylethyl)oxy]phenyl}-1,3-thiazol-5-yl)-2-ethylphenyl]methyl}-3-azetidinecarboxylic acid trifluoroacetate]
> 10000 | < 1 | CCc1c(CN2CC(C(=O)O)C2)cccc1-c1cnc(-c2ccc(OC(C)C)c(Cl)c2)s1 [Example 39, 1-{[3-(2-{3-chloro-4-[(1-methylethyl)oxy]phenyl}-1,3-thiazol-5-yl)-2-ethylphenyl]methyl}-3-azetidinecarboxylic acid trifluoroacetate]
> 3160 | < 1 | CCc1c(CCN2CC(C(=O)O)C2)cccc1-c1cnc(-c2ccc(OC(C)C)c(Cl)c2)s1 [Example 41, 1-{2-[3-(2-{3-chloro-4-[(1-methylethyl)oxy]phenyl}-1,3-thiazol-5-yl)-2-ethylphenyl]ethyl}-3-azetidinecarboxylic acid trifluoroacetate]
> 10000 | ≤ 10 | CCc1c(CN2CCC(C(=O)O)CC2)cccc1-c1cnc(-c2ccc(CC(C)C)c(C#N)c2)s1 [Example 42, 1-[(3-{2-[3-cyano-4-(2-methylpropyl)phenyl]-1,3-thiazol-5-yl}-2-ethylphenyl)methyl]-4-piperidinecarboxylic acid trifluoroacetate]
> 3160 | < 1 | CCc1c(CN2CC(C(=O)O)C2)cccc1-c1cnc(-c2ccc(CC(C)C)c(C#N)c2)s1 [Example 43, 1-[(3-{2-[3-cyano-4-(2-methylpropyl)phenyl]-1,3-thiazol-5-yl}-2-ethylphenyl)methyl]-3-azetidinecarboxylic acid trifluoroacetate]
> 3160 | ≤ 10 | CCc1c(CN2CCC(C(=O)O)C2)cccc1-c1nnc(-c2ccc(OC(C)C)c(Cl)c2)s1 (stereo not shown) [Example 44, 1-{[3-(5-{3-chloro-4-[(1-methylethyl)oxy]phenyl}-1,3,4-thiadiazol-2-yl)-2-ethylphenyl]methyl}-3-pyrrolidinecarboxylic acid trifluoroacetate]
> 10000 | < 100 | CCc1c(CN2CCCC(C(=O)O)C2)cccc1-c1nnc(-c2ccc(OC(C)C)c(Cl)c2)s1 (stereo not shown) [Example 46]
> 10000 | ≤ 10 | CCc1c(CN2CCC[C@H](C(=O)O)C2)cccc1-c1nnc(-c2ccc(OC(C)C)c(Cl)c2)s1 [Example 47]
> 3160 | < 1 | CCc1c(CN2CCC(C(=O)O)C2)cccc1-c1nnc(-c2ccc(CC(C)C)c(C#N)c2)s1 (stereo not shown) [Example 48, 1-[(3-{5-[3-cyano-4-(2-methylpropyl)phenyl]-1,3,4-thiadiazol-2-yl}-2-ethylphenyl)methyl]-3-pyrrolidinecarboxylic acid]
> 10000 | ≤ 10 | CCc1c(CN2CCCC(C(=O)O)C2)cccc1-c1nnc(-c2ccc(CC(C)C)c(C#N)c2)s1 (stereo not shown) [Example 50]
